Several values for one entry are separate records, joined by “and”; a condition that tells them apart may be missing. Equal values may be shown once.
Columns and labels:
[1] = tested on: Heliothis virescens neonates; assay: Feeding disruption bioassay on meal pads and diet cylinders (toxin incorporation, diet comparison); format: in vivo; settings: for percentage of the population producing >5 fecal pellets: Hv Washington neonates, 0.04 μg MVP per ml diet, 24 h
Procedure: Feeding disruption bioassays follow the method Examples 1-9. Bioassay diets contain 20 mg of the dye Trypan Blue (Direct Blue 14; Matheson Coleman and Bell, Norwood, Ohio) per 100 ml of diet. The blue dye serves as a marker of fecal origin, with only larvae feeding on blue diet producing blue feces. All bioassay results were taken from two replicates consisting of 24 insects per replicate. Dead larvae (defined as no movement for 30 s after prodding with a blunt probe) at the assay endpoint (24 h) were discarded and not included in the results in order to avoid interpreting mortality as a non-feeding assay response. Assays were conducted in clear 8-well microtiter plate strips (Nalge Nunc Int., Napersville, Ill.). Strip caps were separated with a scalpel to allow individual removal, facilitating observation of individual wells while not allowing neighboring larvae to escape. A #3 insect pin was used to puncture each cap twice, which permitted ventilation in order to reduce condensation within wells and provide larvae with air.
The original bioassay method was modified by substituting 100 μl meal pads (diameter=6 mm) for fresh diets. Except where noted, toxins were incorporated into the meal pads by hydrating with aqueous solutions containing appropriate concentrations of the B. thuringiensis CryIAc formulation MVP (Mycogen, San Diego, Calif.). Serial MVP dilutions were used in each assay, with dilution series for each replicate of a treatment made on different days. Hydration of 100 μl meal pads was by pipetting two 40 μl aliquots (water volume=80 μl) in order to prevent pads from floating in the wells, as discussed above. Lyophilized diet cylinders (400 μl) were hydrated to original wet weight as previously described with an aqueous MVP dilution, resulting in a final concentration of 0.04 μg MVP per ml diet. After 1 h, cylinders were divided into 3 sections with a scalpel and individual sections were placed in 8-well microtiter strips, 1 section per well. The feeding disruption bioassay was then used to assess the diffusion of MVP through the cylinder using one larva per cylinder section. All bioassay concentrations reported are final diet concentrations, and not those of solutions used to hydrate meal pads.

[2] = tested on: H. virescens; assay: Seven day mortality assay on neonates, CryIAc in artificial diet
Procedure: Insects were reared in the laboratory at 27±1° C. with a 14:10 (light:dark) cycle on a standard artificial diet (Gould et al., 1995; Rose et al., 1995). The Wake strain of H. virescens used was originally collected in 1986 from tobacco in Wake county, N.C. The YHD2 strain was originally collected as eggs from seven tobacco fields in Yadkin County, N.C., in July of 1988. The YHD2 larvae were reared each generation for about seven days from egg hatch on 1000 μg of Bt toxin CryIAc (MVP, commercial grade, >98.0% δ endotoxin, Mycogen Corporation, San Diego) per ml of artificial diet and then transferred to insecticide-free diet for the remainder of development.
Mortality data were analyzed using probit analysis (PROC PROBIT, SAS 1991).

[3] = tested on: H. virescens; assay: Modified feeding disruption bioassay on MVP-hydrated meal pads, field strains; format: in vivo, Heliothis virescens; settings: for percentage producing 0-2 fecal pellets over 24 h: 0.05 μg MVP per ml diet
Procedure: Trypan Blue (Direct Blue 14; Matheson Coleman and Bell, Norwood, Ohio) was blended with artificial diet, 20 mg dye per 100 ml diet. Blue diet aliquots were dispensed (100 μl per well) into 8-well microtiter plate strips (Nalge Nunc Int., Napersville, Ill.). The blue dye served as a marker of feeding on the assay diet, with larvae feeding on colored diet producing blue feces which were easily distinguished visually from feces derived from other food sources. Microtiter plate strips containing blue diet were frozen at −80° C. and lyophilized (Bench Top 6, Virtis, Gardiner, N.Y.; cold trap=−70° C., ˜200 mTorr, ambient temperature=23° C.) for a minimum of 24 h in order to form hydratable meal pads. Meal pads were stored in the dark in sealed plastic bags with desiccant prior to use.
Meal pads were hydrated with aqueous dilutions of the B. thuringiensis CryIAc δ-endotoxin formulation MVP (Mycogen, San Diego, Calif.) at least 1 h prior to the start of assays. Fresh diet aliquots (100 μl) consistently lost 78-84% of their water content by weight during the lyophilization process. Therefore, meal pads were hydrated with 80 μl of MVP in distilled water (treatments) or distilled water only (controls). The insecticide concentrations referenced throughout this paper are in μg MVP per ml of diet, i.e. the final concentration of insecticide in hydrated diet, which is 80% of the concentration of the solution used to hydrate the meal pads. Strip caps (Nunc) were cut into single caps in order to seal wells of the microtiter plate strips individually, which facilitated observation within wells while not allowing neighboring larvae to escape. In order to reduce condensation within the wells and provide larvae with air, caps were punctured twice with a #3 insect pin. Bioassays were conducted at 27±1° C. with a 14:10 (L:D) cycle, and blue fecal pellets were counted at 24 h. Neonates were used in all assays and were exposed to assay diets within 24 h of hatch. The results from each assay are taken from two replicates of each dose, with each replicate consisting of 24 larvae, one larva per well. Control (no dose) treatments were replicated three times. Dead larvae (defined as no movement for 30 s after prodding with a blunt probe) at the assay endpoint (24 h) were discarded and not included in the reported results. For each surviving larva, the number of fecal pellets produced was recorded. Serial dilutions of the MVP formulation were used for meal pad hydration, with separate dilution series prepared for each replicate.
Following 24 h exposure to diet containing a known concentration of MVP (Mycogen), a surviving larva was designated as a ‘feeder’ if it had produced more than two fecal pellets and as a ‘non-feeder’ otherwise. The cut-off value of two fecal pellets was adopted because this provided the clearest separation between species. Probit analyses were applied to the dichotomized fecal pellet counts in order to compare strains, between and within species, with respect to the feeding disruption response. A probit model was then used to relate the proportion of non-feeders to dose (on a log10 scale). Probit curves were fitted separately for each insect strain, and a NFC50 (non-feeding concentration50; log10 of the MVP concentration resulting in 50% non-feeders) and slope was obtained for H. zea. Also, probit curves were compared across species and among strains within species using PROC GENMOD with LINK=PROBIT (SAS 1993) on the data for all strains combined, and fitting effects for species, strains within species, log10 dose, as well as dose by species and dose by strain within species interactions.
Probit estimates of the proportion of feeders at the diagnostic concentration for each strain were used to predict the properties of an assay involving exposure of a small number, n, of larvae in individual wells for 24 h to diet containing a diagnostic concentration of the MVP formulation (final MVP concentration in diet 0.04 μg/ml). […]

## CryIAc: Bacillus thuringiensis CryIAc δ-endotoxin, commercial formulation MVP (Mycogen), >98.0% δ endotoxin
[1]; 100 μl meal pads
  percentage of the population producing >5 fecal pellets: 10.4%
[1]; 400 μl cylinder, bottom section
  percentage of the population producing >5 fecal pellets: 6.4%
[1]; 400 μl cylinder, middle section
  percentage of the population producing >5 fecal pellets: 4.2%
[1]; 400 μl cylinder, top section
  percentage of the population producing >5 fecal pellets: 6.3%
[1]; judged by Hv 97 bioassay, 0.04 μg MVP per ml diet incorporated before lyophilization
  stability in diet during the lyophilization process: apparently stable
[2]; Wake strain, neonates, seven day mortality
  LC50: 0.0017 μg CryIAc/ml diet
[2]; YHD2(female)×Wake(male) hybrid F1 larvae
  LC50: 0.129 μg CryIAc/ml diet
[2]; YHD2 strain, neonates, seven day mortality
  LC50: 2952 μg CryIAc/ml diet and 2952.0 μg CryIAc/ml diet
[3]; H. virescens field strains pooled, 0.04 μg MVP per ml diet, 24 h
  percentage of insects producing >10 fecal pellets: < 1%
[3]; H. virescens strains, diagnostic concentration 0.04 μg/ml, 24 h
  ps, probability of a larva being a feeder, most conservative probit estimate: 0.02
[3]; Hv Franklin neonates
  percentage producing 0-2 fecal pellets over 24 h: 100%
[3]; Hv Franklin, 0.04 μg MVP per ml diet, 24 h
  feeding response (>2 fecal pellets): 2.1%
[3]; Hv Johnston neonates
  percentage producing 0-2 fecal pellets over 24 h: 95.5%
[3]; Hv Quitman (south Georgia), 0.04 μg MVP per ml diet, 24 h
  ps, feeding probability: 0.15
[3]; Hv Quitman neonates, 0.04 μg MVP per ml diet, 24 h
  percentage producing >5 fecal pellets: 2.2%
[3]; Hv Quitman neonates
  percentage producing 0-2 fecal pellets over 24 h: 95.5%
[3]; Hv Quitman, 0.04 μg MVP per ml diet, 24 h
  feeding response (>2 fecal pellets): 14.9%
[3]; Hv Washington neonates, 0.04 μg MVP per ml diet, 24 h
  percentage producing >5 fecal pellets: 4.3%
[3]; Hv Washington neonates
  percentage producing 0-2 fecal pellets over 24 h: 97.7%
[3]; all H. virescens field strains, 0.04 μg MVP per ml diet, 24 h
  fecal pellets produced per larva (none observed above): ≤ 11 fecal pellets
